From patent publication US20150150892A1, “METHODS AND PRODUCTS RELATED TO LUNG CANCER” (Massachusetts Institute of Technology, priority 2012, published 2015)

What was measured:
KP and KP^M cell lines = assay: Cell viability assay (Cell Titer Aqueous Kit); assay type: cell-based, mouse; conditions: KP cell lines, increasing doses of Bay-117082, 48 hours
Description: FIG. 2: Bortezomib sensitivity correlates with basal NF-κB activity in KP lung adenocarcinoma cell lines. […] 3TZ, diamond; LKR13, triangle; KP, solid lines; KPM, dashed lines. Error bars are SD (n=3). (2B) lung cancer cell lines with high basal NF-κB activity were sensitive to bortezomib. NF-κB p65 DNA-binding activity was determined by ELISA from nuclear extracts of KP cell lines and LKR13 cells (set as 1). Relative viability was measured after 5 nM bortezomib treatment, as in 2A. FIG. 17: Bay-117082 induces cell death In KP cells. […] (17B) Bay-117082 induces apoptosis in KP cells. Cells were treated with 10IJM Bay-117082 for 48 hours. […] Cell culture conditions were as described recently (30).

[1] = test system: luciferase-tagged KP cells transplanted into immunocompetent recipient mice; assay: Orthotopic lung tumor model, survival and bioluminescence imaging; assay type: in vivo, mouse
Source text: FIG. 6: Imaging bortezomib response and resistance in an orthotopic lung tumor model. (6A) experimental design. Lung cancer cells derived from KP tumors were infected with a retrovirus expressing luciferase and transplanted into immunocompetent recipient mice by tail vein injection. (6B) Kaplan-Meier survival curve of control and bortezomib-treated recipient mice (n=6; P=1.4×10−5). A total of 10,000 cells were transplanted, and treatment started after 35 days. (6C) representative bioluminescence imaging of recipient mice (n=6) treated with vehicle control or bortezomib, as in 6B. D0 refers to the first treatment. Arrows indicate weekly bortezomib regimen.
(§1) FIG. 7: The NF-κB inhibitor Bay-117082 leads to lung tumor regression in vivo. (7A) quantitative PCR analysis of NF-κB target gene expression in KP cells treated with 10 μM Bay-117082 for indicated hours. Error bars are SD (n=3). (7B) Bay-117082 treatment leads to lung tumor regression and delays tumor progression in the orthotopic lung tumor model. A total of 50,000 luciferase-tagged KP cells were transplanted into recipient mice (n=6), and treatment was started at 19 days after transplantation (set at D0). Mice were treated with vehicle control or 10 mg/kg Bay-117082 by i.p. injection, and imaged at the indicated time points. Arrows indicate Bay-117082 injections. (7C) Bay-117082 prolongs survival in the KP model (n=6; P=0.008). “i.p. dosing” indicates treatment with 3 doses per week.
At indicated time points, mice were scanned for 15 min under isoflurane anesthesia, using a small animal eXplore Locus microCT (GE Healthcare) at 45-μm resolution, 80 kV, with 450-mA current (47). Images were acquired and processed using GE eXplore software. Bioluminescence imaging was performed as previously described (48). Mice were imaged for 60 seconds, and signals in the lung were quantified using Xenogen software.
To facilitate imaging of the bortezomib treatment response, we adapted a transplantation-based orthotopic lung cancer mouse model (37). As outlined in FIG. 6A, we infected KP cell lines with a retrovirus expressing firefly luciferase. The cells were transplanted into immunocompetent recipient mice by i.v. injection, resulting in the development of in situ lung tumors that could be imaged and quantified by bioluminescence imaging.
To determine whether bortezomib therapy was effective in the orthotopic model, we transplanted 10,000 KP cells into host mice and treated the mice 5 weeks later, either with control or with a weekly 4-dose regimen of bortezomib (37).

KP and KP^M cells = assay: Cleaved caspase 3 (CC3) immunoblot in lung adenocarcinoma cells; assay type: cell-based, mouse; conditions: KP cell lines, 10IJM Bay-117082, 48 hours
Description: (§2) FIG. 1. Bortezomib inhibits NF-κB signaling and induces apoptosis in murine lung adenocarcinoma cell lines. (1A) reduction of nuclear p65 level by bortezomib. Two KP (KrasLSL-G12D/wt;p53flox/flox) cell lines (KP1 and KP2) were treated with 5 nM bortezomib (BZ) or vehicle control (ctrl) for 24 hours. Nuclear (N) and cytoplasmic (C) fractions of protein lysates were immunoblotted with the indicated antibodies. NEMO and Parp serve as cytoplasmic and nuclear loading controls, respectively. (1B) quantitative PCR analysis of a subset of NF-κB target genes in 5 nM bortezomib (BZ)-treated KP cells at the indicated time points. Vehicle control is set to 1. (1C) apoptosis in KP and KP^M (KrasLSL-G12D/wt;p53R127H/−) cells induced by bortezomib. Cells were pre-treated with 5 nM bortezomib for 24 hours, and protein lysates were immunoblotted with CC3 and tubulin antibodies. (1D) quantification of cell death in bortezomib-treated cells. Cells were treated with the indicated concentrations of bortezomib for 24 hours, and dead cells were quantified by Trypan blue staining. Error bars are SD (n=3).
FIG. 17: Bay-117082 induces cell death In KP cells. […] (17B) Bay-117082 induces apoptosis in KP cells. Cells were treated with 10IJM Bay-117082 for 48 hours. Protein lysates were immunoblotted with cleaved caspase 3 (CC3) and Tubulin antibodies.
Cell pellets were lysed in Laemmli buffer. […]

IKK kinase activity = conditions: cited from earlier work
NF-κB target genes = assay: Quantitative PCR of NF-κB target genes in KP cells; assay type: cell-based, mouse
Description: as §2, §1
RNA was purified using TRIzol (Invitrogen), according to the manufacturer's instructions. One microgram of RNA was reverse transcribed using the High-Capacity cDNA Reverse Transcription Kit (Applied Biosystems). Real-time PCR (quantitative PCR) amplification was performed using Taqman probes (Applied Biosystems). Data were normalized to the Gapdh (mouse) or GAPDH (human) levels.

[2] = test system: stress-activated protein kinases, p38 and JNK-1; conditions: cited from earlier work
KP mice = assay: Kaplan-Meier survival of KP mice; assay type: in vivo, mouse; conditions: KP mice 8 weeks post Adeno-Cre, Bay-117082 10 mg/kg i.p. 3 times per week for 4 weeks; control 79.0±13.2 days; P=0.008
Description: (5A and 5B) Kaplan-Meier survival curve of vehicle control and bortezomib-treated KP (5A) and K (5B) mice. Arrows indicate weekly 1 mg/kg bortezomib regimen. […] Arrows indicate bortezomib injection.
To initiate lung tumors, cohorts of K or KP mice of 129svJae background were infected with 2.5×10^7 plaque-forming units of Adeno-Cre (University of Iowa) by intranasal inhalation, as described previously (2, 28). Mice were given bortezomib (LC Labs) in PBS [0.5% dimethylsulfoxide (DMSO)] at 1 mg/kg body weight i.v., as indicated.
To analyze the long-term effects of bortezomib therapy, we investigated whether a 4-dose regimen of bortezomib (19) could prolong survival of tumor-bearing mice. Using a cohort of KP mice, we treated tumor-bearing animals 8 weeks after Adeno-Cre infection with bortezomib once a week for 4 weeks (FIG. 10A).

Hmgsc2 mRNA = Hmgsc2 mRNA in bortezomib resistant cells; assay type: cell-based; conditions: vs control shRNA
Source text: As shown in the data the control levels of Hmgsc2 are quite high in the control and low in the other samples.
The effects of Hmgsc2 expression in bortezomib resistant cells was examined to determine if Hmgsc2 would be a good therapeutic target for the treatment of NF-kB regulated lung cancers. […] As shown in the data the control levels of Hmgsc2 are quite high in the control and low in the other samples.

Cc1ccc(S(=O)(=O)/C=C/C#N)cc1 [Bay-117082]
cell death (relative cell viability) (KP and KP^M cell lines): cell death
lung tumor signal in the initial phase ([1]; 50,000 luciferase-tagged KP cells, 10 mg/kg Bay-117082 i.p., 0-9 days): significantly reduced lung tumor signal
lung tumor progression ([1]; orthotopic model, 10 mg/kg Bay-117082 i.p.): delayed lung tumor progression until 42 days
tumor response under continuous treatment ([1]; orthotopic model, 42-63 days): eventually became refractory to therapy
caspase 3 cleavage (KP and KP^M cells): induced caspase 3 cleavage
IKK kinase activity (IKK kinase activity): inhibits
Xiap inhibition, Bay-117082 compared with bortezomib (NF-κB target genes; KP cells in vitro, FIG. 1B and FIG. 7A): stronger
expression of prosurvival NF-κB target genes such as Bcl2, Bclx1, Xiap (NF-κB target genes; KP cells, 10 μM Bay-117082, indicated hours): downregulates
effect on stress-activated protein kinases p38 and JNK-1 [2]: stimulate
survival (KP mice): 120.2 ± 27.0 days

insulin: positive control; represses Hmgcs2
relative amount of Hmgsc2 mRNA (Hmgsc2 mRNA): low
